Row | SMILES | melting point [°C]
1 | CCCOc1ccc2ccccc2c1C=O | 65 to 68
2 | CC(NS(=O)(=O)c1ccccc1C(F)(F)F)C(=O)O (stereo unspecified) | 105 to 107
3 | O=C(O)c1ccc(C=C2NC(=S)N(c3ccc(F)cc3)C2=O)cc1 | 349 to 351
4 | Nc1nnc(C2Cc3ccccc3O2)o1 (stereo unspecified) | 198 to 200
5 | CC(C)(Br)C(=O)Nc1ccccc1 | 82 to 84
6 | Cc1n[nH]c(N)c1I | 102 to 104
7 | COC(=O)c1cc2c(OC)c(OC)c(OC)cc2[nH]1 | 136 to 138
8 | COc1ccc(NC(=O)Cn2cc(N)cn2)cc1 | 151 to 153
9 | CC1(C)SC(=O)NC1=O | 77 to 79
10 | CC(C)c1cc(N)n(C(C)C)n1 | 52 to 54
11 | COC(=O)c1cc(S(=O)(=O)Cl)c(C(=O)OC)s1 | 129 to 131
12 | N#Cc1cc(F)cc(CO)c1 | 59 to 61
13 | N#Cc1cccc(-n2cccn2)n1 | 116 to 118
14 | NC1CCN(c2ncccn2)CC1 | 82 to 84
15 | COc1ccc(C2=CCNC2)cc1 | 94 to 96
16 | CC1(c2ccc(OC(F)(F)F)cc2)NC(=O)NC1=O (stereo unspecified) | 151 to 153
17 | COc1ccc(NC(=O)NN)cc1 | 146 to 148
18 | CN(C)c1ccc(CNC(=O)CCl)cc1 | 59 to 61
19 | O=C(O)Cc1csc(NC(=O)Cc2cccs2)n1 | 200 to 202
20 | Nc1ccccc1Oc1ccccc1N | 61 to 64
21 | CC(=O)Nc1ccc(C(=O)CCl)c(F)c1 | 128 to 130
22 | CNC(C)c1ccc(S(C)=O)cc1 (stereo unspecified) | 52 to 54
23 | CC(C)(C)OC(=O)NCC(=O)NN | 79 to 81
24 | CN(C)C(=O)COc1ccccc1C=O | 89 to 91
25 | C1CCC(c2nnn[nH]2)CC1 | 109 to 111

Row | SMILES | melting point [°C]
26 | Cc1ncsc1-c1cnco1 | 96 to 98
27 | Cc1nn(CCCl)c(C)c1C=O | 49 to 51
28 | Nc1cccc(Oc2ccncc2)c1 | 107 to 109
29 | Cc1cs/c(=N\c2ccccc2)n1C1CCCC1 | 51 to 53
30 | Cn1c(O)nnc1S | 216 to 218
31 | CC(=O)c1cc2c(cc1[N+](=O)[O-])OCO2 | 121 to 123
32 | O=C(O)CCS(=O)(=O)c1ccc2c(c1)CCC2 | 124 to 126
33 | Cc1ccc(NC(=O)C(Cl)c2ccccc2)cc1Cl (stereo unspecified) | 120 to 122
34 | Cc1ccc(S(=O)(=O)N(C)C)cc1NC(=S)NN | 191 to 193
35 | Sc1nnc(Nc2ccccc2)s1 | 160 to 162
36 | CNC(=O)CC(N)=NO | 119 to 121
37 | CC(C)c1cnc(S)n1C(C)C | 177 to 179
38 | NC(=NO)C12CC3CC(CC(C3)C1)C2 | 152 to 154
39 | Nc1ccc(S(=O)(=O)Nc2cccc(Cl)c2)cc1 | 132 to 134
40 | NCc1cccnc1O | 89 to 91
41 | NS(=O)(=O)c1ccc(NC(=O)C(=O)O)cc1 | 259 to 261
42 | Nc1c(I)cccc1C(=O)O | 172 to 174
43 | N#Cc1cc(Br)cs1 | 47 to 49
44 | Cc1ccc(-c2nn(Cc3ccccc3)cc2C=O)cc1C | 79 to 81
45 | O=C(O)CSc1nccn1-c1ccc(Br)cc1 | 203 to 205
46 | Clc1ncnc2c1oc1ccccc12 | 144 to 146
47 | O=C1CC2CCC(C1)N2c1ccccc1 | 89 to 91
48 | CC(=O)c1ccc(N(C)C)cc1O | 120 to 122
49 | CCN(CC)C(=O)COc1ccc(C(C)=O)cc1 | 61 to 63
50 | Cc1nc(O)nc(C)c1CC(=O)O | 271 to 273

Row | SMILES | melting point [°C]
51 | CCS(=O)(=O)Nc1ccc(N)cc1OC | 129 to 131
52 | CN1CCN(S(=O)(=O)c2ccc(Cl)nc2)CC1 | 129 to 131
53 | C=CC(=O)Nc1cccc(C(F)(F)F)c1 | 79 to 81
54 | Cc1cccc(C(=O)NO)c1O | 139 to 141
55 | CC(O)c1ccc(-n2cccn2)cc1 (stereo unspecified) | 92 to 94
56 | O=C(O)c1ccc(N2CCCC2)c(F)c1 | 269 to 271
57 | O=C1CCC2(CC1)C(=O)Nc1ccccc12 | 198 to 200
58 | Cc1ccc(F)c(-c2nc(C(=O)O)no2)c1 | 107 to 109
59 | O=C(O)C1CCCN(c2ccc(Cl)nn2)C1 (stereo unspecified) | 179 to 181
60 | CC(=O)NCc1ccc(-c2nc(N)sc2C)s1 | 154 to 156
61 | O=C(O)c1sc(Cl)nc1Cl | 164 to 166
62 | CCCn1c(N)c(NCCN2CCOCC2)c(=O)[nH]c1=O | 153 to 155
63 | O=C(O)CNC(=O)C1c2ccccc2C(=O)N1C1CC1 (stereo unspecified) | 242 to 244
64 | O=C(O)c1n[nH]ccc1=O | 199 to 201
65 | CCCc1[nH]nc(C(=O)O)c1[N+](=O)[O-] | 158 to 160
66 | CCOC(=O)c1nnc(C)n1C1CC1 | 109 to 111
67 | CC(=O)NCc1ccc(C(=O)C(C)Cl)s1 (stereo unspecified) | 79 to 81
68 | O=C(O)c1ccc(S(=O)(=O)Nc2ccccc2)cc1 | 225 to 228
69 | COc1ccc(COc2cccc(F)c2)cc1N | 57 to 59
70 | Nc1cc(=O)[nH]n1-c1ccccc1 | 109 to 111
71 | N#Cc1ccc(S(=O)(=O)Cl)c([N+](=O)[O-])c1 | 119 to 121
72 | CCOc1cc2c(cc1OCC)CNCC2 | 108 to 110
73 | NS(=O)(=O)c1ccc(CNC(=O)OCC(F)(F)F)cc1 | 150 to 152
74 | Cc1cc(C(=O)CCl)c(C)n1-c1ccc(F)c(Cl)c1 | 115 to 117
75 | O=S(=O)(Cl)Cc1ccc(F)cc1Br | 45 to 47

Row | SMILES | melting point [°C]
76 | CC1CC1c1cc(N)on1 (stereo unspecified) | 55 to 57
77 | Cc1cc(CO)c2ccccc2n1 | 144 to 146
78 | CC(C)C(Br)C(=O)NCC1CCCO1 (stereo unspecified) | 53 to 55
79 | CCC(CC)(Cc1nc2ccccc2s1)C(=O)O | 143 to 145
80 | CCc1ccc(N)cc1S(N)(=O)=O | 136 to 138
81 | CC(C)(C)NS(=O)(=O)c1ccc(NN)nc1 | 124 to 126
82 | CCN(CC)C(N)=S | 98 to 102
83 | COc1ccc(C(=O)O)c(Cl)c1 | 209 to 211
84 | COC(=O)C(=O)CC(=O)c1ccccc1 | 58 to 60
85 | O=C(O)c1ncoc1-c1ccco1 | 171 to 173
86 | O=C(CCl)Nc1nc2c(s1)CCCC2 | 144 to 146
87 | CC(C)c1noc2nc(-c3ccco3)cc(C(=O)O)c12 | 224 to 226
88 | O=C(O)CCSCC(=O)Nc1ccc(Br)cc1 | 148 to 150
89 | CC(CC(=O)O)C(=O)c1ccc(Cl)cc1 (stereo unspecified) | 73 to 75
90 | Cc1cnc(O)c([N+](=O)[O-])c1 | 247 to 249
91 | COc1ccc(C(=O)O)cc1S(=O)(=O)NC1CCCCC1C (stereo unspecified) | 201 to 203
92 | O=C(O)c1cc2cc(Cl)cc(Br)c2o1 | 265 to 267
93 | O=C(Nc1cc(Cl)ccc1C(=O)O)c1ccc(F)cc1 | 250 to 252
94 | N#Cc1cccc(CN2C(=O)CSC2=O)c1 | 112 to 114
95 | CC1(C)C(=O)Nc2ccc(Br)cc21 | 156 to 158
96 | N#Cc1c(SCC(=O)O)nc2c(c1-c1ccco1)CCCC2 | 209 to 211
97 | COc1ccc(-c2csc(NC(=O)C(C)Cl)n2)cc1 (stereo unspecified) | 124 to 126
98 | Cc1[nH]n(C)c(=N)c1C | 109 to 111
99 | COc1cc(CCl)ccc1OCc1cccc(C#N)c1 | 95 to 97
100 | O=C(Cn1cnnn1)Nc1ccccc1C(=O)O | 194 to 196

Row | SMILES | melting point [°C]
101 | O=C(O)c1ccccc1N1CCOCC1 | 58 to 60
102 | CC(C)(C)OC(=O)N1CCN(CC#N)CC1 | 79 to 81
103 | CC(C)(C)OC(=O)N1CCC(C)(C(=O)O)CC1 | 149 to 151
104 | CC(C)(C)OC(=O)N1CCC(CC(=O)O)(C(=O)O)C1 (stereo unspecified) | 180 to 182
105 | Nc1sc2c(c1C(=O)O)CCC2 | 147 to 149
106 | Nc1nc(-c2ccc(Cl)s2)ns1 | 151 to 153
107 | CCNS(=O)(=O)c1ccc(/C=C/C(=O)O)cc1 | 248 to 250
108 | CC(C)(C)OC(=O)NC(CO)CO | 83 to 85
109 | OCc1ccc(O)c(Cl)c1 | 85 to 87
110 | O=C(O)C1CC(=O)N(Cc2cccc(C(F)(F)F)c2)C1 (stereo unspecified) | 109 to 111
111 | Sc1ncc(-c2ccc(Cl)cc2)n1-c1ccccc1 | 283 to 285
112 | O=C(O)c1ccc(Cn2ccccc2=O)o1 | 199 to 201
113 | O=C(O)CNC(=O)c1ccc(Br)cc1 | 160 to 162
114 | C#CCNC(=O)c1ccc(Cl)nc1 | 139 to 141
115 | COC(=O)c1cc(C=O)c[nH]1 | 124 to 126
116 | Cc1n[nH]cc1C=O | 104 to 106
117 | N#Cc1ccc(N2C(=O)C=CC2=O)cc1 | 138 to 140
118 | Nc1cc(=O)[nH][nH]1 | 204 to 206
119 | Nc1cccnc1N1CCCC1 | 78 to 80
120 | Nc1cc(Cl)c(N)cc1Cl | 164 to 166
121 | O=C(O)c1ccc(Nc2ccccc2)c([N+](=O)[O-])c1 | 250 to 252
122 | O=C(O)CCNC(=O)N1CCc2ccccc2C1 | 144 to 146
123 | Cc1c(N)cccc1S(C)(=O)=O | 117 to 119
124 | CC(=O)c1ccc(N2CCNCC2)c(F)c1 | 104 to 106
125 | Cc1n[nH]c(C)c1NC(=O)CCl | 160 to 162

Row | SMILES | melting point [°C]
126 | Cc1nc(-c2cccc(Br)c2)ccc1C(=O)O | 181 to 183
127 | CCCCn1c(SCC(=O)O)nc2cc(C(F)(F)F)ccc21 | 120 to 122
128 | Cn1cc(-c2cncc(C(=O)O)c2)cn1 | 260 to 262
129 | CC1(C)CC(=O)c2cc(Br)cc(Cl)c2O1 | 48 to 50
130 | CN1CCC(C)(O)CC1 | 62 to 64
131 | NC(=S)CCN1CCOC1=O | 140 to 142
132 | Nc1cccc(CN2CCN(c3ccccn3)CC2)c1 | 168 to 170
133 | CN(C)Cc1ccnc(N)c1 | 58 to 60
134 | O=C(O)C1CCN(C2=NS(=O)(=O)c3ccccc32)CC1 | 279 to 281
135 | COc1ccccc1C(=O)CC#N | 71 to 75
136 | Cc1cc(C(=O)NN)c(C)o1 | 132 to 134
137 | N#Cc1ccccc1-c1ccccc1C(=O)O | 168 to 170
138 | Cc1c(C(=O)O)sc2nc(Cc3ccccc3)[nH]c(=O)c12 | 342 to 344
139 | Cc1cc(C)c(CBr)c(C)c1 | 49 to 51
140 | NC(=O)c1cccc(CS)n1 | 61 to 63
141 | CCn1ncc(C#N)c1N | 159 to 161
142 | CC(O)c1cc(Cl)ccc1Cl (stereo unspecified) | 60 to 64
143 | Cc1cccn2cc(COc3ccccc3C(=O)O)nc12 | 199 to 201
144 | Cc1ccc(NC(=O)C(=O)O)cc1 | 170 to 172
145 | Cc1csc(Sc2ccc(N)cc2)n1 | 99 to 101
146 | CC(C)(C)OC(=O)N1CCC(O)(C(F)(F)F)C1 (stereo unspecified) | 102 to 104

Reference: a melting point compilation (Tetko et al.)
